Blank lines part the entries; values can stand above or below the compound they belong to.
How the values were obtained:
Details in all cases: human, ipsc-cm
[1] = (§1) Electrical activity assay on cell lines treated with a given drug. DMSO was used as a vehicle and a control, unblinded dofetilide was used as a control.
[2] = as §1; remark: listed apart in the source
[3] = as §1; remark: listed apart in the source
[4] = as §1; remark: listed apart in the source
[5] = as §1; assay type: ADME, cell-based
[6] = as §1; assay type: ADME, cell-based; remark: listed apart in the source
[7] = 0.001 µM, concentration (um) 0.001 uM
[8] = 0.01 µM, concentration (um) 0.01 uM
[9] = 0.1 µM, concentration (um) 0.1 uM
[10] = 0.009507 µM, concentration (um) 0.00950736 uM
[11] = 0.03004 µM, concentration (um) 0.0300433 uM
[12] = 0.09494 µM, concentration (um) 0.0949367 uM
[13] = 0.3 µM, concentration (um) 0.3 uM

SMILES: COC(=O)C1=C(C)NC(C)=C(C(=O)OC)C1c1ccccc1[N+](=O)[O-] [NIFEDIPINE]
APDc ([1]; 0.001 µM): 59.3 | FPD measurement ([1]; 0.001 µM): 59.3 FPDc | APDc ([1]; 0.01 µM): 57.63 | FPD measurement ([1]; 0.01 µM): 57.63 FPDc | APDc ([1]; 0.1 µM): More Than Half The Wells Had A Quiescence Event Or Apdc Readings Of 0 | FPD measurement ([1]; 0.1 µM): More Than Half The Wells Had A Quiescence Event Or Apdc Readings Of 0 | APDc ([1]; 1 µM): More Than Half The Wells Had A Quiescence Event Or Apdc Readings Of 0 | FPD measurement ([1]; 1 µM): More Than Half The Wells Had A Quiescence Event Or Apdc Readings Of 0 | FPD measurement ([2]; 0.001 µM): 50.88 FPDc | FPDc ([2]; 0.001 µM): 50.88 | FPD measurement ([2]; 0.01 µM): 43.95 FPDc | FPDc ([2]; 0.01 µM): 43.95 | FPD measurement ([2]; 0.1 µM): 24.94 FPDc | FPDc ([2]; 0.1 µM): 24.94 | FPD measurement ([2]; 1 µM): 16.23 FPDc | FPDc ([2]; 1 µM): 16.23 | FPDc ([3]; 0.001 µM): 73.26 | FPDc ([3]; 0.01 µM): 70.54 | FPDc ([3]; 0.1 µM): 51.56 | FPDc ([3]; 1 µM): 21.94 | FPD measurement ([4]; 0.001 µM): 1 Values Out Of 1 Were Excluded Due To Quiescence Or 0 Fpdc | FPDc ([4]; 0.001 µM): 1 Values Out Of 1 Were Excluded Due To Quiescence Or 0 Fpdc | FPD measurement ([4]; 0.01 µM): 1 Values Out Of 1 Were Excluded Due To Quiescence Or 0 Fpdc | FPDc ([4]; 0.01 µM): 1 Values Out Of 1 Were Excluded Due To Quiescence Or 0 Fpdc | FPD measurement ([4]; 0.1 µM): 1 Values Out Of 1 Were Excluded Due To Quiescence Or 0 Fpdc | FPDc ([4]; 0.1 µM): 1 Values Out Of 1 Were Excluded Due To Quiescence Or 0 Fpdc | FPD measurement ([4]; 1 µM): 1 Values Out Of 1 Were Excluded Due To Quiescence Or 0 Fpdc | FPDc ([4]; 1 µM): 1 Values Out Of 1 Were Excluded Due To Quiescence Or 0 Fpdc | FPD measurement [5, 7]: 5 Values Out Of 5 Were Excluded Due To Quiescence Or 0 Apdc | FPDc [5, 7]: 21.76 | FPD measurement [5, 8]: 5 Values Out Of 5 Were Excluded Due To Quiescence Or 0 Apdc | FPDc [5, 8]: 17.1 | FPD measurement [5, 9]: More Than Half The Wells Had A Quiescence Event Or Apdc Readings Of 0 | FPDc [5, 9]: More Than Half The Wells Had A Quiescence Event Or Fpdc Readings Of 0 | FPD measurement ([5]; 1 µM, concentration (um) 1 uM): More Than Half The Wells Had A Quiescence Event Or Apdc Readings Of 0 | FPDc ([5]; 1 µM, concentration (um) 1 uM): More Than Half The Wells Had A Quiescence Event Or Fpdc Readings Of 0

APDc ([1]; 0.009507 µM): 66.7 | FPD measurement ([1]; 0.009507 µM): 66.7 FPDc | APDc ([1]; 0.03004 µM): 75.75 | FPD measurement ([1]; 0.03004 µM): 75.75 FPDc | FPDc ([3]; 0.009507 µM): 63.48 | FPDc ([3]; 0.03004 µM): 45.72 | FPDc ([3]; 0.09494 µM): 31.81 | FPDc ([3]; 0.3 µM): 19.65 | FPD measurement [6, 10]: 39.69 FPDc
SMILES: CCOC(=O)C1=C(C)NC(C)=C(C(=O)OC)C1c1cccc([N+](=O)[O-])c1 (centres undefined) [NITRENDIPINE]
APDc ([1]; 0.09494 µM): More Than Half The Wells Had A Quiescence Event Or Apdc Readings Of 0 | FPD measurement ([1]; 0.09494 µM): More Than Half The Wells Had A Quiescence Event Or Apdc Readings Of 0 | APDc ([1]; 0.3 µM): More Than Half The Wells Had A Quiescence Event Or Apdc Readings Of 0 | FPD measurement ([1]; 0.3 µM): More Than Half The Wells Had A Quiescence Event Or Apdc Readings Of 0 | FPD measurement ([3]; 0.009507 µM): 5 Values Out Of 5 Were Excluded Due To Quiescence Or 0 Apdc | FPD measurement ([3]; 0.03004 µM): 5 Values Out Of 5 Were Excluded Due To Quiescence Or 0 Apdc | FPD measurement ([3]; 0.3 µM): 5 Values Out Of 5 Were Excluded Due To Quiescence Or 0 Apdc | FPDc [6, 10]: 6 Values Out Of 6 Were Excluded Due To Quiescence Or 0 Fpdc | FPDc [6, 11]: 6 Values Out Of 6 Were Excluded Due To Quiescence Or 0 Fpdc | FPDc [6, 12]: 6 Values Out Of 6 Were Excluded Due To Quiescence Or 0 Fpdc | FPDc [6, 13]: 6 Values Out Of 6 Were Excluded Due To Quiescence Or 0 Fpdc | FPD measurement ([4]; 0.009507 µM): 1 Values Out Of 1 Were Excluded Due To Quiescence Or 0 Fpdc | FPDc ([4]; 0.009507 µM): 1 Values Out Of 1 Were Excluded Due To Quiescence Or 0 Fpdc | FPD measurement ([4]; 0.03004 µM): 1 Values Out Of 1 Were Excluded Due To Quiescence Or 0 Fpdc | FPDc ([4]; 0.03004 µM): 1 Values Out Of 1 Were Excluded Due To Quiescence Or 0 Fpdc | FPD measurement ([4]; 0.09494 µM): 1 Values Out Of 1 Were Excluded Due To Quiescence Or 0 Fpdc | FPDc ([4]; 0.09494 µM): 1 Values Out Of 1 Were Excluded Due To Quiescence Or 0 Fpdc | FPD measurement ([4]; 0.3 µM): 1 Values Out Of 1 Were Excluded Due To Quiescence Or 0 Fpdc | FPDc ([4]; 0.3 µM): 1 Values Out Of 1 Were Excluded Due To Quiescence Or 0 Fpdc | FPD measurement [5, 10]: More Than Half The Wells Had A Quiescence Event Or Apdc Readings Of 0 | FPDc [5, 10]: More Than Half The Wells Had A Quiescence Event Or Fpdc Readings Of 0 | FPD measurement [5, 11]: More Than Half The Wells Had A Quiescence Event Or Apdc Readings Of 0 | FPDc [5, 11]: More Than Half The Wells Had A Quiescence Event Or Fpdc Readings Of 0 | FPD measurement [5, 12]: More Than Half The Wells Had A Quiescence Event Or Apdc Readings Of 0 | FPDc [5, 12]: More Than Half The Wells Had A Quiescence Event Or Fpdc Readings Of 0 | FPD measurement [5, 13]: 5 Values Out Of 5 Were Excluded Due To Quiescence Or 0 Apdc | FPDc [5, 13]: 5 Values Out Of 5 Were Excluded Due To Quiescence Or 0 Fpdc

FPDc ([3]; 0.001 µM): 67.41 | FPDc ([3]; 0.01 µM): 65.79 | FPDc ([3]; 0.1 µM): 66.77 | FPDc ([3]; 1 µM): 63.51 | FPD measurement [6, 7]: 48.77 FPDc | FPD measurement [6, 8]: 52.11 FPDc | FPD measurement [6, 9]: 71.18 FPDc | FPDc [5, 7]: 20.04 | FPDc [5, 8]: 19.19 | FPDc [5, 9]: 20.37 | FPDc ([5]; 1 µM, concentration (um) 1 uM): 19.11
SMILES: CC(C)(C)c1ccc(C(O)CCCN2CCC(C(O)(c3ccccc3)c3ccccc3)CC2)cc1 (centres undefined) [TERFENADINE]
FPDc [6, 7]: 6 Values Out Of 6 Were Excluded Due To Quiescence Or 0 Fpdc | FPDc [6, 8]: 6 Values Out Of 6 Were Excluded Due To Quiescence Or 0 Fpdc | FPDc [6, 9]: 6 Values Out Of 6 Were Excluded Due To Quiescence Or 0 Fpdc | FPDc ([6]; 1 µM, concentration (um) 1 uM): 6 Values Out Of 6 Were Excluded Due To Quiescence Or 0 Fpdc | FPD measurement ([4]; 0.001 µM): 1 Values Out Of 1 Were Excluded Due To Quiescence Or 0 Fpdc | FPDc ([4]; 0.001 µM): 1 Values Out Of 1 Were Excluded Due To Quiescence Or 0 Fpdc | FPD measurement ([4]; 0.01 µM): 1 Values Out Of 1 Were Excluded Due To Quiescence Or 0 Fpdc | FPDc ([4]; 0.01 µM): 1 Values Out Of 1 Were Excluded Due To Quiescence Or 0 Fpdc | FPD measurement ([4]; 0.1 µM): 1 Values Out Of 1 Were Excluded Due To Quiescence Or 0 Fpdc | FPDc ([4]; 0.1 µM): 1 Values Out Of 1 Were Excluded Due To Quiescence Or 0 Fpdc | FPD measurement ([4]; 1 µM): 1 Values Out Of 1 Were Excluded Due To Quiescence Or 0 Fpdc | FPDc ([4]; 1 µM): 1 Values Out Of 1 Were Excluded Due To Quiescence Or 0 Fpdc | FPD measurement [5, 7]: 5 Values Out Of 5 Were Excluded Due To Quiescence Or 0 Apdc | FPD measurement [5, 8]: 5 Values Out Of 5 Were Excluded Due To Quiescence Or 0 Apdc | FPD measurement [5, 9]: 5 Values Out Of 5 Were Excluded Due To Quiescence Or 0 Apdc | FPD measurement ([5]; 1 µM, concentration (um) 1 uM): 5 Values Out Of 5 Were Excluded Due To Quiescence Or 0 Apdc

From ChEMBL document CHEMBL4295262, “Evaluation of the utility of stem-cell derived cardiomyocytes for drug proarrhythmic potential” (2019)
